Measured values published in patent US8871681B2, “Herbicidal compositions comprising 4-amino-3-chloro-5-fluoro-6-(4-chloro-2-fluoro-3-methoxyphenyl) pyridine-2-carboxylic acid or a derivative thereof and certain sulfonylureas” (Dow AgroSciences LLC, priority 2012, dated 2014).

Assays:
[1] = test system: LEFCH (Leptochloa chinensis, Chinese sprangletop); test: Postemergence foliar-applied weed control, direct seeded rice, greenhouse (Example I); assay type: in vivo, Leptochloa chinensis (L.) Nees; settings: Dinebra chinensis, post-emergence
From the text: (§1) Seeds or nutlets of the desired test plant species were planted in a soil matrix prepared by mixing a loam or sandy loam soil (e.g., 28.6 percent silt, 18.8 percent clay, and 52.6 percent sand, with a pH of about 5.8 and an organic matter content of about 1.8 percent) and calcareous grit in an 80 to 20 ratio. The soil matrix was contained in plastic pots with a volume of 1 quart and a surface area of 83.6 square centimeters (cm^2). When required to ensure good germination and healthy plants, a fungicide treatment and/or other chemical or physical treatment was applied. The plants were grown for 8-22 days in a greenhouse with an approximate 14 h photoperiod which was maintained at about 29° C. during the day and 26° C. during the night. Nutrients (Peters Excel® 15-5-15 5-Ca 2-Mg and iron chelate) were applied in the irrigation solution as needed and water was added on a regular basis. Supplemental lighting was provided with overhead metal halide 1000-Watt lamps as necessary. The plants were employed for testing when they reached the first through fourth true leaf stage.
(§2) Treatments consisted of the acid or esters of 4-amino-3-chloro-5-fluoro-6-(4-chloro-2-fluoro-3-methoxy-phenyl)pyridine-2-carboxylic acid (Compound A), each formulated as an SC, and various herbicidal components alone and in combination. Forms of compound A were applied on an acid equivalent basis.
(§3) Other herbicidal components were applied on an active ingredient basis and included acetolactate synthase (ALS)-inhibiting herbicides (sulfonylurea chemical class) azimsulfuron formulated as Gulliver®, bensulfuron-methyl formulated as Londax® 60DF, cyclosulfamuron (technical material), ethoxysulfuron formulated as Sunrice® 15 WDG, flazasulfuron formulated as Katana®, flucetosulfuron formulated as Sukedachi® 1KG G, foramsulfuron formulated as Option®, imazosulfuron formulated as Brazzos® WG, iodosulfuron-methyl-sodium formulated as Hussar®, metsulfuron-methyl formulated as Lorate®, nicosulfuron formulated as Accent®, orthosulfamuron formulated as Strada® WG, primisulfuron-methyl (technical material), propyrisulfuron formulated as Zeta One®, rimsulfuron formulated as Matrix® WG, sulfometuron-methyl formulated as Oust®, and trifloxysulfuron-sodium formulated as Monument® 75WG.
(§4) Treatment requirements were calculated based upon the rates being tested, the concentration of active ingredient or acid equivalent in the formulation, and a 12 mL application volume at a rate of 187 L/ha.
(§5) For treatments comprised of formulated compounds, measured amounts of compounds were placed individually in 25 mL glass vials and diluted in a volume of 1.25% (v/v) Agri-Dex® crop oil concentrated to obtain 12× stock solutions. […] Application solutions were prepared by adding an appropriate amount of each stock solution (e.g., 1 mL) and diluted to the appropriate final concentrations with the addition of 10 mL of an aqueous mixture of 1.25% (v/v) crop oil concentrate so that the final spray solutions contained 1.25+/−0.05% (v/v) Agrcrop oil concentrate.
(§6) For treatments comprised of formulated and technical compounds, weighed amounts of the technical materials were placed individually in 25 mL glass vials and dissolved in a volume of 97:3 v/v acetone/DMSO to obtain 12× stock solutions, and measured amounts of the formulated compounds were placed individually in 25 mL glass vials and diluted in a volume of 1.25% (v/v) crop oil concentrate to obtain 12× stock solutions. […] Application solutions were prepared by adding an appropriate amount of each stock solution (e.g., 1 mL) and diluted to the appropriate final concentrations with the addition of an appropriate amount of an aqueous mixture of 1.5% (v/v) crop oil concentrate so that the final spray solutions contained 1.25% (v/v) crop oil concentrate. […]

[2] = test system: ECHOR (Echinochloa oryzoides, early watergrass); test: In-water applied weed control, transplanted paddy rice, greenhouse (Example II); assay type: in vivo, Echinochloa oryzoides (Ard.) Fritsch
Experimental: (§7) Weed seeds or nutlets of the desired test plant species were planted in puddled soil (mud) prepared by mixing a shredded, non-sterilized mineral soil (50.5 percent silt, 25.5 percent clay, and 24 percent sand, with a pH of about 7.6 and an organic matter content of about 2.9 percent) and water at a 1:1 volumetric ratio. The prepared mud was dispensed in 365 mL aliquots into 16-ounce (oz.) non-perforated plastic pots with a surface area of 86.59 square centimeters (cm^2) leaving a headspace of 3 centimeters (cm) in each pot. Rice seeds were planted in Sun Gro MetroMix® 306 planting mixture, which typically has a pH of 6.0 to 6.8 and an organic matter content of about 30 percent, in plastic plug trays. Seedlings at the second or third leaf stage of growth were transplanted into 860 mL of mud contained in 32-oz. non-perforated plastic pots with a surface area of 86.59 cm^2 4 days prior to herbicide application. The paddy was created by filling the headspace of the pots with 2.5 to 3 cm of water. When required to ensure good germination and healthy plants, a fungicide treatment and/or other chemical or physical treatment was applied. The plants were grown for 4-22 days in a greenhouse with an approximate 14 h photoperiod which was maintained at about 29′C during the day and 26° C. during the night. Nutrients were added as Osmocote® (19:6:12, N:P:K+minor nutrients) at 2 g per 16-oz. pot and 4 g per 32-oz. pot. Water was added on a regular basis to maintain the paddy flood, and supplemental lighting was provided with overhead metal halide 1000-Watt lamps as necessary. The plants were employed for testing when they reached the first through fourth true leaf stage.
(§8) Treatments consisted of the acid or esters of 4-amino-3-chloro-5-fluoro-6-(4-chloro-2-fluoro-3-methoxy-phenyl)pyridine-2-carboxylic acid (compound A) each formulated as an SC and various herbicidal components alone and in combination. Forms of compound A were applied on an acid equivalent basis.
(§9) Other herbicidal components were applied on an active ingredient basis and included acetolactate synthase (ALS)-inhibiting herbicides (sulfonylurea chemical class), azimsulfuron formulated as Gulliver®, bensulfuron-methyl formulated as Londax® 60DF, cyclosulfamuron (technical grade materail), ethoxysulfuron formulated as Sunrice® 15 WDG, flucetosulfuron formulated as Sukedachi® 1KG G, imazosulfuron formulated as Brazzos®, metsulfuron-methyl formulated as Lorate®, nicosulfuron formulated as Accent®, orthosulfamuron formulated as Strada® WG, propyrisulfuron formulated as Zeta One®, and rimsulfuron formulated as Matrix® WG.
(§10) Treatment requirements for each compound or herbicidal component were calculated based upon the rates being tested, the concentration of active ingredient or acid equivalent in the formulation, an application volume of 2 mL per component per pot, and an application area of 86.59 cm^2 per pot.
(§11) For formulated compounds, a measured amount was placed in an individual 100 or 200 mL glass vial and was dissolved in a volume of 1.25% (v/v) Agri-Dex® crop oil concentrate to obtain application solutions.
(§12) For technical grade compounds, a weighed amount was placed in an individual 100 to 200 mL glass vial and was dissolved in a volume of acetone to obtain concentrated stock solutions. […] The concentrated stock solutions obtained were diluted with an equivalent volume of an aqueous mixture containing 2.5% (v/v) crop oil concentrate so that the final application solutions contained 1.25% (v/v) crop oil concentrate.
(§13) Applications were made by injecting with a pipetter appropriate amounts of the application solutions, individually and sequentially, into the aqueous layer of the paddy. Control plants were treated in the same manner with the solvent blank. Applications were made so that all treated plant material received the same concentrations of acetone and crop oil concentrate. […]

[3] = test system: BRAPP (Brachiaria platyphylla, broadleaf signalgrass); test: Postemergence foliar-applied weed control, direct seeded rice, greenhouse (Example I); assay type: in vivo, Brachiaria platyphylla (Griseb.) Nash; settings: Urochloa platyphylla, post-emergence, 480 h, 20 DAA, read-out: Visual Weed Control (%) Obs
From the text: as §1, §2, §3, §4, §5, §6

[4] = test system: SCPMA (Bolboschoenus maritimus or Schoenoplectus maritimus, sea clubrush); test: In-water applied weed control, transplanted paddy rice, greenhouse (Example II); assay type: in vivo, Bolboschoenus maritimus (L.) Palla
Experimental: as §7, §8, §9, §10, §11, §12, §13

[5] = test system: CYPIR (Cyperus iria, rice flatsedge); test: Postemergence foliar-applied weed control, direct seeded rice, greenhouse (Example I); assay type: in vivo, Cyperus iria L.; settings: 22 DAA; 12.5 gai/ha
From the text: as §1, §2, §3, §4, §5, §6

[6] = test system: DIGSA (Digitaria sanguinalis, large crabgrass); test: as above; assay type: in vivo, Digitaria sanguinalis (L.) Scop.
From the text: as §1, §2, §3, §4, §5, §6

[7] = Table 28, second set, 25 gai/ha alone

## COc1cc(OC)nc(NC(=O)NS(=O)(=O)c2c(-c3nnn(C)n3)cnn2C)n1 [Azimsulfuron, N-[[(4,6-dimethoxy-2-pyrimidinyl)amino]carbonyl]-1-methyl-4-(2-methyl-2H-tetrazol-5-yl)-1H-pyrazole-5-sulfonamide, reference compound]
[1]; 480 h, 20 DAA, 3.125 gai/ha, read-out: Visual Weed Control (%) Obs
  pest or weed control at 3.125 g/ha: 0%
[1]; 480 h, 20 DAA, 6.25 gai/ha, read-out: Visual Weed Control (%) Obs
  pest or weed control at 6.25 g/ha: 0%
[2]; Table 28, 2.5 gai/ha alone
  Visual Weed Control (%) - 20 DAA ECHOR Obs: 0%
[2]; [7]
  Visual Weed Control (%) - 20 DAA ECHOR Obs: 60%
[2]; Table 29, 2.5 gai/ha alone
  Visual Weed Control (%) - 20 DAA ECHOR Obs: 0%
[2]; Table 29, 5 gai/ha alone
  Visual Weed Control (%) - 20 DAA ECHOR Obs: 20%
[2]; Table 29, 25 gai/ha alone
  Visual Weed Control (%) - 20 DAA ECHOR Obs: 60%
[2]; Table 30, 25 gai/ha alone
  Visual Weed Control (%) - 20 DAA ECHOR Obs: 60%
[3]; 3.125 gai/ha
  pest or weed control at 3.125 g/ha: 0%
[3]; 6.25 gai/ha
  pest or weed control at 6.25 g/ha: 0%
[3]; 12.5 gai/ha
  pest or weed control at 12.5 g/ha: 60%
[4]; Table 28, 2.5 gai/ha alone
  Visual Weed Control (%) - 20 DAA SCPMA Obs: 70%
[4]; [7]
  Visual Weed Control (%) - 20 DAA SCPMA Obs: 85%
[4]; Table 29, 2.5 gai/ha alone
  Visual Weed Control (%) - 20 DAA SCPMA Obs: 70%
[4]; Table 29, 25 gai/ha alone
  Visual Weed Control (%) - 20 DAA SCPMA Obs: 85%

## COc1cc(OC)nc(NC(=O)NS(=O)(=O)Nc2ccccc2C(=O)C2CC2)n1 [Cyclosulfamuron, N-[[[2-(cyclopropylcarbonyl)phenyl]amino]sulfonyl]-N′-(4,6-dimethoxy-2-pyrimidinyl)urea, reference compound]
[5]
  Visual Weed Control (%) Obs: 95%
[4]; Table 33, 12.5 gai/ha alone
  Visual Weed Control (%) - 21 DAA SCPMA Obs: 75%

## COc1cc(OC)nc(NC(=O)NS(=O)(=O)c2cc(NC=O)ccc2C(=O)N(C)C)n1 [Foramsulfuron, 2-[[[[(4,6-dimethoxy-2-pyrimidinyl)amino]carbonyl]amino]sulfonyl]-4-(formylamino)-N,N-dimethylbenzamide]
[1]; 504 h, 21 DAA, 20 gai/ha, read-out: Visual Weed Control (%) Obs
  pest or weed control at 20 g/ha: 0%
[1]; 504 h, 21 DAA, 40 gai/ha, read-out: Visual Weed Control (%) Obs
  pest or weed control at 40 g/ha: 25%

## COC(=O)c1ccccc1S(=O)(=O)NC(=O)Nc1nc(OC(F)F)cc(OC(F)F)n1 [Primisulfuron-methyl, methyl 2-[[[[[4,6-bis(difluoromethoxy)-2-pyrimidinyl]amino]carbonyl]amino]sulfonyl]benzoate]
[1]; 504 h, read-out: Visual Weed Control (%) Obs, 21 DAA, 15 gai/ha
  pest or weed control at 15 g/ha: 40%
[1]; 504 h, read-out: Visual Weed Control (%) Obs, 21 DAA, 30 gai/ha
  pest or weed control at 30 g/ha: 60%

## COC(=O)c1ccccc1S(=O)(=O)NC(=O)Nc1nc(C)cc(C)n1 [Sulfometuron-methyl, methyl 2-[[[[(4,6-dimethyl-2-pyrimidinyl)amino]carbonyl]amino]sulfonyl]benzoate, reference compound]
[6]; 22 DAA, 35 gai/ha
  Visual Weed Control (%) Obs: 85%

## COc1cc(OC)nc(NC(=O)[N-]S(=O)(=O)c2ncccc2OCC(F)(F)F)n1.[Na+] [Trifloxysulfuron-sodium]
[6]; Table 27, foliar-applied, 24 gai/ha alone
  Visual Weed Control (%) - 21 DAA DIGSA Obs: 65%
